Experimental data taken from PubChem BioAssay (NCI).
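Five compound concentrations were applied to cells in 96-well plates for 48 hours; endpoints were derived by simple linear interpolation of the resulting dose-response curve. GI50: concentration for 50% inhibition of growth. Definition used: TGI = concentration required for complete inhibition of growth.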

Legend:
Assay in all cases: DTP human tumour cell line panel, 48 h
[1] = tested on: OVCAR-5 ovarian
[2] = tested on: MALME-3M melanoma
[3] = tested on: TK-10 renal
[4] = tested on: DU-145 prostate
[5] = tested on: NCI-H460 lung
[6] = tested on: K-562 leukemia
[7] = tested on: UACC-62 melanoma
[8] = tested on: ACHN renal
[9] = tested on: HCC-2998 colon
[10] = tested on: COLO 205 colon
[11] = tested on: KM12 colon
[12] = tested on: EKVX NSCLC
[13] = tested on: 786-0 renal
[14] = tested on: MDA-MB-435
[15] = tested on: MOLT-4 leukemia
[16] = tested on: NCI/ADR-RES ovarian
[17] = tested on: HT29 colon
[18] = tested on: SF-268 CNS
[19] = tested on: SK-MEL-2 melanoma
[20] = tested on: HL-60(TB) leukemia
[21] = tested on: T-47D breast
[22] = tested on: UACC-257 melanoma
[23] = tested on: RPMI-8226 leukemia
[24] = tested on: SN12C renal
[25] = tested on: SNB-19 CNS
[26] = tested on: A498 renal
[27] = tested on: U251 CNS
[28] = tested on: SF-539 CNS

In the case of CCCCCCNC(=O)Oc1ccc(/C(=C(/C)c2ccccc2)c2ccc(OCCN3CCCCCC3)cc2)cc1, the GI50 [1] is reported as 12.4 µM, the TGI [1] is reported as 27 µM and the GI50 [2] is reported as 7.97 µM. For the same molecule, the TGI [2] was 21.5 µM, the GI50 [3] was 16.3 µM and the TGI [3] was 30.5 µM. For the same molecule, the GI50 [4] was 15.7 µM, the TGI [4] was 37.7 µM and the GI50 [5] was 4.27 µM. For the same molecule, the TGI [5] was 16.1 µM, the GI50 [6] was 2870 nM and the TGI [6] was greater than 100 µM. The GI50 [7] was 9.09 µM, the TGI [7] was 22 µM and the GI50 [8] was 13.3 µM. The TGI [8] was 26.2 µM, the GI50 [9] was 11 µM and the TGI [9] was 23.5 µM. For the same molecule, the GI50 [10] was 3.14 µM, the TGI [10] was 12.1 µM and the GI50 [11] was 6.31 µM. For the same molecule, the TGI [11] was 35.6 µM, the GI50 [12] was 13.2 µM and the TGI [12] was 31.2 µM. It also gave a GI50 [13] of 5.42 µM, a TGI [13] of 18.7 µM and a GI50 [14] of 10.8 µM. The TGI [14] was 23.3 µM, the GI50 [15] was 3.48 µM and the TGI [15] was 25 µM. It also gave a GI50 [16] of 12.3 µM, a TGI [16] of 28.8 µM and a GI50 [17] of 3.07 µM. For the same molecule, the TGI [17] was 11.1 µM, the GI50 [18] was 12.7 µM and the TGI [18] was 29.4 µM. The GI50 [19] was 14.1 µM, the TGI [19] was 27.6 µM and the GI50 [20] was 2790 nM. For the same molecule, the TGI [20] was 17.7 µM, the GI50 [21] was 3.07 µM and the TGI [21] was 21 µM. The GI50 [22] was 3.75 µM, the TGI [22] was 14.5 µM and the GI50 [23] was 3.99 µM. It also gave a TGI [23] of 23 µM, a GI50 [24] of 10.4 µM and a TGI [24] of 23.7 µM. For the same molecule, the GI50 [25] was 16.6 µM, the TGI [25] was 69.8 µM and the GI50 [26] was 15.7 µM. For the same molecule, the TGI [26] was 29.4 µM, the GI50 [27] was 7.25 µM and the TGI [27] was 20.7 µM. For the same molecule, the GI50 [28] was 7.23 µM and the TGI [28] was 21 µM.
